Measured values published in publication PMC12250302, “Synthesis, Antimicrobial Activities, and Model of Action of Novel Tetralone Derivatives Containing Aminoguanidinium Moiety” (International Journal of Molecular Sciences, 2025).
Values after ≈ are worked out from the molar mass of the structure shown.

Experiments:
Assay in all cases: MIC and MBC testing, broth microdilution
A. baumannii ATCC 19606 = assay type: cell-based, Acinetobacter baumannii; settings: Acinetobacter baumannii; for MIC: ATCC19606, 18 h, read-out: MIC; for MBC: ATCC19606, read-out: MBC
Text: (§1) The minimum inhibitory concentrations (MICs) and minimum bactericidal concentrations (MBCs) of the synthesized compounds effective against ESKAPE strains, S. aureus clinical isolates, and MRSA were investigated by the broth dilution method. Levofloxacin is a broad-spectrum antibacterial agent that is widely used in the treatment of ESKAPE infections. Therefore, levofloxacin was selected as the positive control for the preliminary activity screening. DMSO (0.1%) was selected as the negative control.
(§2) The minimum inhibitory concentration (MIC) of all synthesized compounds was tested by the broth microdilution method. In brief, compounds dissolved in DMSO were diluted twice continuously in a 96-well plate with MH broth. The ESKAPE pathogens (E. coli ATCC 25922, S. aureus ATCC 29213, K. pneumoniae ATCC 700603, A. baumannii ATCC 19606, P. aeruginosa ATCC 27853, and E. faecium ATCC 35667), clinical S. aureus isolates (LMY45, LMY46, LMY47, and LMY48) and methicillin-resistant Staphylococcus aureus (MRSA-1 and MRSA-2) were cultured in MH broth to logarithmic growth phase and then diluted to 1 × 10^6 CFU/mL in MH broth. Subsequently, the diluted bacterial solution was mixed with the diluted compound solution in a 96-well plate and incubated at 37 °C for a duration of 18 h. The MIC of the compounds was recorded as the lowest concentration at which no visible growth was observed. […] Each concentration was replicated thrice.

[1] = test system: K. pneumoniae ATCC 700603; assay type: cell-based, Klebsiella pneumoniae; settings: Klebsiella pneumoniae; for MIC: ATCC700603, 18 h, read-out: MIC; for MBC: ATCC700603, read-out: MBC
Text: as §1, §2

S. aureus ATCC 29213 = assay type: cell-based, Staphylococcus aureus; settings: Staphylococcus aureus, ATCC29213, S. aureus ATCC 29213; for MIC: 18 h, read-out: MIC; for MBC: read-out: MBC
Text: as §1, §2

E. faecium ATCC 35667 = assay type: cell-based, Enterococcus faecium; settings: Enterococcus faecium, ATCC35667, E. faecium ATCC 35667; for MIC: 18 h, read-out: MIC; for MBC: read-out: MBC
Text: as §1, §2

E. coli ATCC 25922 = assay type: cell-based, Escherichia coli; settings: Escherichia coli; for MIC: ATCC25922, 18 h, read-out: MIC; for MBC: ATCC25922, read-out: MBC
Text: as §1, §2

P. aeruginosa ATCC 27853 = assay type: cell-based, Pseudomonas aeruginosa; settings: Pseudomonas aeruginosa; for MIC: ATCC27853, 18 h, read-out: MIC; for MBC: ATCC27853, read-out: MBC
Text: as §1, §2

[2] = test system: clinical S. aureus isolate LMY48; assay type: cell-based, Staphylococcus aureus; settings: Staphylococcus aureus, LMY48; for MIC: 18 h, read-out: MIC; for MBC: read-out: MBC
Method: (§3) Furthermore, the MBC values of the compounds were detected.
as §2, with “h.” for “h. The MIC of the compounds was recorded as the lowest concentration at which no visible growth was observed.”

MRSA-2 = assay type: cell-based, Staphylococcus aureus; settings: Staphylococcus aureus, MRSA-2; for MIC: 18 h, read-out: MIC; for MBC: read-out: MBC
Method: as §3
as §2, with “h.” for “h. The MIC of the compounds was recorded as the lowest concentration at which no visible growth was observed.”

[3] = test system: clinical S. aureus isolate LMY47; assay type: cell-based, Staphylococcus aureus; settings: Staphylococcus aureus, LMY47; for MIC: 18 h, read-out: MIC; for MBC: read-out: MBC
Method: as §3
as §2, with “h.” for “h. The MIC of the compounds was recorded as the lowest concentration at which no visible growth was observed.”

[4] = test system: clinical S. aureus isolate LMY46; assay type: cell-based, Staphylococcus aureus; settings: Staphylococcus aureus, LMY46; for MIC: 18 h, read-out: MIC; for MBC: read-out: MBC
Method: as §3
as §2, with “h.” for “h. The MIC of the compounds was recorded as the lowest concentration at which no visible growth was observed.”

[5] = test system: clinical S. aureus isolate LMY45; assay type: cell-based, Staphylococcus aureus; settings: Staphylococcus aureus, LMY45; for MIC: 18 h, read-out: MIC; for MBC: read-out: MBC
Method: as §3
as §2, with “h.” for “h. The MIC of the compounds was recorded as the lowest concentration at which no visible growth was observed.”

MRSA-1 = assay type: cell-based, Staphylococcus aureus; settings: Staphylococcus aureus, MRSA-1; for MIC: 18 h, read-out: MIC; for MBC: read-out: MBC
Method: as §3
as §2, with “h.” for “h. The MIC of the compounds was recorded as the lowest concentration at which no visible growth was observed.”

Row | MIC (A. baumannii ATCC 19606) [µg/mL] | MIC [1] [µg/mL] | MIC (S. aureus ATCC 29213) [µg/mL] | MIC (E. faecium ATCC 35667) [µg/mL] | MIC (E. coli ATCC 25922) [µg/mL] | MIC (P. aeruginosa ATCC 27853) [µg/mL] | MIC [2] [µg/mL] | MIC (MRSA-2) [µg/mL] | MIC [3] [µg/mL] | MIC [4] [µg/mL] | MIC [5] [µg/mL] | Structure (SMILES) | MBC (A. baumannii ATCC 19606) [µg/mL] | MBC (S. aureus ATCC 29213) [µg/mL] | MBC (E. faecium ATCC 35667) [µg/mL] | MBC (E. coli ATCC 25922) [µg/mL] | MBC [2] [µg/mL] | MBC (MRSA-2) [µg/mL] | MBC [3] [µg/mL] | MBC [4] [µg/mL] | MBC [5] [µg/mL] | further results
1 | 16 (≈ 48 µM) | 32 (≈ 96 µM) | 8 (≈ 24 µM) | 16 (≈ 48 µM) | 16 (≈ 48 µM) | > 32 | 8 (≈ 24 µM) | 8 (≈ 24 µM) | 8 (≈ 24 µM) | 4 (≈ 12 µM) | 4 (≈ 12 µM) | [H]/N=C(\N)NN=C1CCCc2cc(OCc3ccc(C#N)cc3)ccc21 [Compound 1V, (E)-2-(6-((4-cyanobenzyl)oxy)-3,4-dihydronaphthalen-1(2H)-ylidene)hydrazine-1-carboximidamide] | 32 (≈ 96 µM) | 32 (≈ 96 µM) | > 32 | 32 (≈ 96 µM) | 8 (≈ 24 µM) | 8 (≈ 24 µM) | 32 (≈ 96 µM) | 32 (≈ 96 µM) | 8 (≈ 24 µM) | MIC (MRSA-1): 8 µg/mL (≈ 24 µM); MBC (MRSA-1): 16 µg/mL (≈ 48 µM)
2 | 32 (≈ 83.2 µM) | > 32 | 2 (≈ 5.2 µM) | 2 (≈ 5.2 µM) | 32 (≈ 83.2 µM) | > 32 | 2 (≈ 5.2 µM) | 2 (≈ 5.2 µM) | 2 (≈ 5.2 µM) | 2 (≈ 5.2 µM) | 2 (≈ 5.2 µM) | [H]/N=C(\N)NN=C1CCCc2cc(OCc3cccc(-c4ccccc4)c3)ccc21 [Compound 1W, (E)-2-(6-([1,1’-biphenyl]-3-ylmethoxy)-3,4-dihydronaphthalen-1(2H)-ylidene)hydrazine-1-carboximidamide] | 32 (≈ 83.2 µM) | 16 (≈ 41.6 µM) | 16 (≈ 41.6 µM) | 32 (≈ 83.2 µM) | 4 (≈ 10.4 µM) | 4 (≈ 10.4 µM) | 8 (≈ 20.8 µM) | 8 (≈ 20.8 µM) | 8 (≈ 20.8 µM) | MIC (MRSA-1): 4 µg/mL (≈ 10.4 µM); MBC (MRSA-1): 32 µg/mL (≈ 83.2 µM)
3 | 8 (≈ 27.7 µM) | 8 (≈ 27.7 µM) | 1 (≈ 3.47 µM) | 4 (≈ 13.9 µM) | 4 (≈ 13.9 µM) | 16 (≈ 55.5 µM) | 2 (≈ 6.93 µM) | 4 (≈ 13.9 µM) | 4 (≈ 13.9 µM) | 8 (≈ 27.7 µM) | 8 (≈ 27.7 µM) | [H]/N=C(\N)NN=C1CCCc2cc(OCCCCC)ccc21 [Compound 2B, (E)-2-(6-(pentyloxy)-3,4-dihydronaphthalen-1(2H)-ylidene)hydrazine-1-carboximidamide] | 8 (≈ 27.7 µM) | 8 (≈ 27.7 µM) | 16 (≈ 55.5 µM) | 8 (≈ 27.7 µM) | 2 (≈ 6.93 µM) | 4 (≈ 13.9 µM) | 8 (≈ 27.7 µM) | 16 (≈ 55.5 µM) | 16 (≈ 55.5 µM) | MBC [1]: 8 µg/mL (≈ 27.7 µM); MBC (P. aeruginosa ATCC 27853): 32 µg/mL (≈ 111 µM); MIC (MRSA-1): 32 µg/mL (≈ 111 µM); MBC (MRSA-1): 32 µg/mL (≈ 111 µM)
4 | 4 (≈ 13.2 µM) | 8 (≈ 26.5 µM) | 1 (≈ 3.31 µM) | 2 (≈ 6.61 µM) | 4 (≈ 13.2 µM) | 8 (≈ 26.5 µM) | 4 (≈ 13.2 µM) | 2 (≈ 6.61 µM) | 2 (≈ 6.61 µM) | 8 (≈ 26.5 µM) | 8 (≈ 26.5 µM) | [H]/N=C(\N)NN=C1CCCc2cc(OCCCCCC)ccc21 [Compound 2C, (E)-2-(6-(hexyloxy)-3,4-dihydronaphthalen-1(2H)-ylidene)hydrazine-1-carboximidamide] | 4 (≈ 13.2 µM) | 8 (≈ 26.5 µM) | 8 (≈ 26.5 µM) | 4 (≈ 13.2 µM) | 32 (≈ 106 µM) | 4 (≈ 13.2 µM) | 8 (≈ 26.5 µM) | 16 (≈ 52.9 µM) | 32 (≈ 106 µM) | MBC [1]: 8 µg/mL (≈ 26.5 µM); MBC (P. aeruginosa ATCC 27853): 16 µg/mL (≈ 52.9 µM); MIC (MRSA-1): 4 µg/mL (≈ 13.2 µM); MBC (MRSA-1): 16 µg/mL (≈ 52.9 µM)
